Among the data in patent US10494364B2, “Cathepsin K inhibitors and application thereof” (SUNSHINE LAKE PHARMA CO., LTD., priority 2015, dated 2019) are IC50 values, retold here.

Common to all, as to assay type: biochemical
One experiment concerns the target human cathepsin L (Homo sapiens, UniProt P07711). Kind of experiment: Assay of cathepsin L inhibitory activity in vitro. To be noted: IC50 against human cathepsin L; substrate Z-Phe-Arg-AMC 10 μM; 25° C.; read-out: Cat-L. As to the method:
Assay Method of Cathepsin L Inhibitory Activity In Vitro
0.01 ng/μL was the final concentration of Cathepsin L in the enzyme reaction, and Z-Phe-Arg-AMC with the final concentration of 10 μM was added into the reaction system as substrate, in the reaction system the test compound and enzyme had been incubated at 25° C. for 15 min.

The next experiment concerns the target T1, human cathepsin K (Homo sapiens, UniProt P43235).
T1 sequence (P43235 115-329): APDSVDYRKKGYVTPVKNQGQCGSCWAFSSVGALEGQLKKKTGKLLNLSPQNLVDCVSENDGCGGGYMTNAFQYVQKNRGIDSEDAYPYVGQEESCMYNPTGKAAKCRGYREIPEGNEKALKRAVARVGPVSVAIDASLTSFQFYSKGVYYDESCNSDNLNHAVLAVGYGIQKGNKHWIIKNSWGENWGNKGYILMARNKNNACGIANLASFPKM
Kind of experiment: Assay of cathepsin K inhibitory activity in vitro. To be noted: IC50 against human cathepsin K; substrate Z-Phe-Arg-AMC 10 μM; 25° C.; read-out: Cat-K. As to the method:
Assay Method of Cathepsin K Inhibitory Activity In Vitro
Using 45000-fold diluted cathepsin K solution and 10 μM Z-Phe-Arg-AMC as substrate, the test compound and cathepsin K solution were incubated at 25° C. for 15 min in a 15 μL reaction system according to the optimized experimental condition.

A further experiment concerns the target human cathepsin B (Homo sapiens, UniProt P07858). Kind of experiment: Assay of cathepsin B inhibitory activity in vitro. To be noted: IC50 against human cathepsin B; substrate Z-Phe-Arg-AMC 10 μM; 25° C.; read-out: Cat-B. As to the method: Assay Method of Cathepsin B Inhibitory Activity In Vitro
0.01 ng/μL was the final concentration of Cathepsin B in the enzyme reaction, and Z-Phe-Arg-AMC with the final concentration of 10 μM was added into the reaction system as substrate, in the reaction system the test compound and enzyme had been incubated at 25° C. for 15 min.

The target in the next experiment is human cathepsin S (Homo sapiens, UniProt P25774). Kind of experiment: Assay of cathepsin S inhibitory activity in vitro. Particulars: IC50 against human cathepsin S; substrate Z-VVR-AMC 20 μM; 25° C.; read-out: Cat-S. As to the method: Assay Method of Cathepsin S Inhibitory Activity In Vitro
human cathepsin S, sequence (P25774 115-331): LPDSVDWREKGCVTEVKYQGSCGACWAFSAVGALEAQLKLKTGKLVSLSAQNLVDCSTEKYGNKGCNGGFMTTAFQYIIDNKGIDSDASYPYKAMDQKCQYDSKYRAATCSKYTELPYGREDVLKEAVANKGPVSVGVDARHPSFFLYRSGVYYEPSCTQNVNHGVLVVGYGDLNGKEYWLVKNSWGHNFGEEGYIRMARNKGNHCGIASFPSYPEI
0.25 ng/L was the final concentration of Cathepsin S in the enzyme reaction, and Z-VVR-AMC with the final concentration of 20 μM was added into the reaction system as substrate, in the reaction system the test compound and enzyme had been incubated at 25° C. for 15 min.

Molecules are shown by their SMILES. pIC50: −log10 of the molar value.

human cathepsin L, sequence (P07711 114-333): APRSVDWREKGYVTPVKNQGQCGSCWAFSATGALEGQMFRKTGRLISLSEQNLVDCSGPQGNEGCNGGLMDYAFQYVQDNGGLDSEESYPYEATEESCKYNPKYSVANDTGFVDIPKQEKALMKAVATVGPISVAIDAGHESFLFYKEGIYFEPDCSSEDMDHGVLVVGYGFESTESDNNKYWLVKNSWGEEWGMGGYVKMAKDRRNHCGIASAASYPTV

`COc1cc(-c2ccc3cc(C(=O)NC4(C(=O)NC5(C#N)CC5)CCC(F)(F)CC4)oc3c2)ccc1-n1cncn1` [Example 39, N-(1-((1-cyanocyclopropyl)carbamoyl)-4,4-difluorocyclohexyl)-6-(3-methoxy-4-(1H-1,2,4-triazol-1-yl)phenyl)benzofuran-2-carboxamide]: the pIC50 was below 5.00 on human cathepsin L, 9.51 on human cathepsin K, 6.39 on human cathepsin B and below 5.00 at human cathepsin S.

For the molecule `COc1cc(-c2ccc3cc(C(=O)NC4(C(=O)NC5(C#N)CC5)CCC(F)(F)CC4)oc3c2)ccc1C(=O)N1CCOCC1` [Example 40, N-(1-((1-cyanocyclopropyl)carbamoyl)-4,4-difluorocyclohexyl)-6-(3-methoxy-4-(morpholine-4-carbonyl)phenyl)benzofuran-2-carboxamide], the pIC50 is below 5.00 on human cathepsin L, 9.02 on human cathepsin K, 5.65 at human cathepsin B and below 5.00 at human cathepsin S.

On to `COc1cc(-c2ccc3cc(C(=O)NC4(C(=O)NC5(C#N)CC5)CCC(F)(F)CC4)oc3c2)ccc1OCC(C)(C)O` [Example 44, N-(1-((1-cyanocyclopropyl)carbamoyl)-4,4-difluorocyclohexyl)-6-(4-(2-hydroxy-2-methylpropoxy)-3-methoxyphenyl)benzofuran-2-carboxamide], for which the pIC50 on human cathepsin L is below 5.00; at human cathepsin K, 8.63; at human cathepsin B, 5.10; at human cathepsin S, below 5.00.

For `N#CC1(NC(=O)C2(NC(=O)c3cc4ccc(-c5ccc(S(=O)(=O)N6CCOCC6)cc5)cc4o3)CCC(F)(F)CC2)CC1` [Example 47, N-(1-((1-cyanocyclopropyl)carbamoyl)-4,4-difluorocyclohexyl)-6-(4-(morpholinosulfonyl)phenyl)benzofuran-2-carboxamide], the pIC50 is below 5.00 at human cathepsin L, 9.00 at human cathepsin K, below 5.00 on human cathepsin B and below 5.00 at human cathepsin S.

In the case of `N#CC1(NC(=O)C2(NC(=O)c3cc4ccc(-c5csc(-n6cncn6)n5)cc4o3)CCC(F)(F)CC2)CC1` [Example 57, 6-(2-(1H-1,2,4-triazol-1-yl)thiazol-4-yl)-N-(1-((1-cyanocyclopropyl)carbamoyl)-4,4-difluorocyclohexyl)benzofuran-2-carboxamide], the pIC50 on human cathepsin L was below 5.00; on human cathepsin K, 8.89; on human cathepsin B, below 5.00; at human cathepsin S, 6.38.

Turning to `N#CC1(NC(=O)C2(NC(=O)c3cc4ccc(-c5ccc(-n6cncn6)cc5)cc4o3)CCCCCC2)CC1` [Example 61], the pIC50 at human cathepsin L is below 5.00; on human cathepsin K, 8.90; on human cathepsin B, 6.37; on human cathepsin S, below 5.00.

On to `CS(=O)(=O)c1ccc(-c2ccc3cc(C(=O)NC4(C(=O)NC5(C#N)CC5)CCCCC4)oc3c2)cc1` [Example 62], for which the pIC50 at human cathepsin L is below 5.00; on human cathepsin K, 8.86; at human cathepsin B it was 6.06; at human cathepsin S, 5.40.

Regarding `N#CC1(NC(=O)C2(NC(=O)c3cc4ccc(-c5csc(N6CCCC6=O)n5)cc4o3)CCCCC2)CC1` [Example 63], the pIC50 on human cathepsin L is below 5.00; on human cathepsin K, 8.80; on human cathepsin B it was 5.92; on human cathepsin S it was below 5.00.

Turning to `CS(=O)(=O)c1cccc(-c2ccc3cc(C(=O)NC4(C(=O)NC5(C#N)CC5)CCCCC4)oc3c2)c1` [Example 64], the pIC50 at human cathepsin L was below 5.00; on human cathepsin K it was 9.06; at human cathepsin B, 6.43; at human cathepsin S, 6.20.

Regarding `N#CC1(NC(=O)C2(NC(=O)c3cc4ccc(-c5csc(N6CCNC6=O)n5)cc4o3)CCCCC2)CC1` [Example 65], the pIC50 was below 5.00 on human cathepsin L, 8.89 at human cathepsin K, 6.16 on human cathepsin B and below 5.00 on human cathepsin S.

On to `CS(=O)(=O)c1nc(-c2ccc3cc(C(=O)NC4(C(=O)NC5(C#N)CC5)CCCCC4)oc3c2)cs1` [Example 66], for which the pIC50 was below 5.00 at human cathepsin L, 9.09 at human cathepsin K, 6.27 at human cathepsin B and 6.01 on human cathepsin S.

`N#CC1(NC(=O)C2(NC(=O)c3cc4ccc(-c5csc(N6CCS(=O)(=O)CC6)n5)cc4o3)CCCCC2)CC1` [Example 67]: the pIC50 on human cathepsin L is below 5.00; on human cathepsin K it was 9.19; at human cathepsin B it was 6.27; at human cathepsin S, 6.00.

As to `N#CC1(NC(=O)C2(NC(=O)c3cc4ccc(-c5csc(N6CCOC6=O)n5)cc4o3)CCCCC2)CC1` [Example 68], the pIC50 is below 5.00 at human cathepsin L, 9.10 on human cathepsin K, 6.44 at human cathepsin B and 5.39 on human cathepsin S.

Regarding `CS(=O)(=O)c1ccc(-c2ccc3cc(C(=O)NC4(C(=O)NC5(C#N)CC5)CCCC4)oc3c2)cc1` [Example 70], the pIC50 is below 5.00 at human cathepsin L, 8.07 at human cathepsin K, 6.28 at human cathepsin B and 5.30 at human cathepsin S.

Consider `COC1(c2ccc(-c3ccc4cc(C(=O)NC5(C(=O)NC6(C#N)CC6)CCCCC5)oc4c3)cc2)COC1` [Example 71], for which the pIC50 is below 5.00 on human cathepsin L, 8.68 at human cathepsin K, 6.54 on human cathepsin B and below 5.00 at human cathepsin S.

Consider `N#CC1(NC(=O)C2(NC(=O)c3cc4ccc(-c5ccc(C6(O)COC6)cc5)cc4o3)CCCCC2)CC1` [Example 72], for which the pIC50 on human cathepsin L is below 5.00; at human cathepsin K, 9.30; at human cathepsin B it was 6.14; at human cathepsin S, below 5.00.

Regarding `N#CC1(NC(=O)C2(NC(=O)c3cc4ccc(-c5ccc(C6(F)COC6)cc5)cc4o3)CCCCC2)CC1` [Example 73], the pIC50 at human cathepsin L was below 5.00; at human cathepsin K, 8.52; at human cathepsin B, 5.95; at human cathepsin S, below 5.00.

For the molecule `N#CC1(NC(=O)C2(NC(=O)c3cc4ccc(-c5ccc(C6(O)CCOCC6)cc5)cc4o3)CCCCC2)CC1` [Example 75], the pIC50 on human cathepsin L is below 5.00; at human cathepsin K, 8.74; on human cathepsin B, 6.31; on human cathepsin S, 5.39.

For the molecule `N#CC1(NC(=O)C2(NC(=O)c3cc4ccc(-c5ccc(C6(O)CCS(=O)(=O)CC6)cc5)cc4o3)CCCCC2)CC1` [Example 76], the pIC50 on human cathepsin L is below 5.00; at human cathepsin K it was 9.26; on human cathepsin B, 6.92; at human cathepsin S it was 6.47.

Consider `N#CC1(NC(=O)C2(NC(=O)c3cc4ccc(-c5ccc(C6(O)COC6)nc5)cc4o3)CCCCC2)CC1` [Example 77], for which the pIC50 on human cathepsin L was at most 5.00; on human cathepsin K, 9.17; on human cathepsin B, 6.75; at human cathepsin S, 5.98.

`N#CC1(NC(=O)C2(NC(=O)c3cc4ccc(-c5csc(C6(O)COC6)n5)cc4o3)CCCCC2)CC1` [Example 78]: the pIC50 is at most 5.00 on human cathepsin L, 9.02 at human cathepsin K, 6.55 at human cathepsin B and 5.68 on human cathepsin S.

`N#CC1(NC(=O)C2(NC(=O)c3cc4ccc(-c5ccc(C6(O)COC6)cc5)cc4o3)CCCCCC2)CC1` [Example 79]: the pIC50 at human cathepsin L is 5.15; at human cathepsin K it was 9.14; on human cathepsin B it was 6.48; at human cathepsin S it was 6.13.

For the molecule `CS(=O)(=O)c1ccc(-c2ccc3cc(C(=O)NC4(C(=O)NC5(C#N)CC5)CCCCCC4)oc3c2)cc1` [Example 81], the pIC50 was below 5.00 at human cathepsin L, 8.87 at human cathepsin K, 5.62 at human cathepsin B and 5.80 at human cathepsin S.

As for `CS(=O)(=O)c1ccc(-c2ccc3cc(C(=O)NC4(C(=O)NC5(C#N)CC5)CCCCC4)oc3n2)cc1` [Example 82], the pIC50 at human cathepsin L was below 5.00; on human cathepsin K it was 8.57; at human cathepsin B it was 6.70; on human cathepsin S, 5.82.

For the molecule `N#CC1(NC(=O)C2(NC(=O)c3cc4ccc(-c5ccc(C6(F)CCS(=O)(=O)CC6)cc5)cc4o3)CCCCC2)CC1` [Example 83], the pIC50 on human cathepsin L was below 5.00; at human cathepsin K, 8.66; on human cathepsin B, 5.80; at human cathepsin S, below 5.00.

`N#CC1(NC(=O)C2(NC(=O)c3cc4ccc(-c5ccc(-n6cncn6)cc5)cc4o3)CCCCC2)CC1` [Example 84]: the pIC50 on human cathepsin L is below 5.00; on human cathepsin K, 8.89; at human cathepsin B, 6.07; on human cathepsin S it was 5.01.

For the molecule `N#CC1(NC(=O)C2(NC(=O)c3cc4ccc(-c5ccc(-n6cn[nH]c6=O)cc5)cc4o3)CCC(F)(F)CC2)CC1` [Example 85], the pIC50 was below 5.00 at human cathepsin L, 8.90 on human cathepsin K, 5.66 on human cathepsin B and 5.82 on human cathepsin S.
